Measured values from patent publication US20190382396A1, “SALTS OF BICYCLO[1.1.1]PENTANE INHIBITORS OF DUAL LEUCINE ZIPPER (DLK) KINASE FOR THE TREATMENT OF DISEASE” (Board of Regents, The University of Texas System, priority 2018, published 2019).
Where two headings read alike, the source gives them in different places.

Columns and labels:
[1] = Stability (50° C., 40° C./75% RH, light; 1 week); assay type: physicochemical; settings: for XRPD change? / purity: bulk, 1 week
Experimental: The stability of the free base 1 and the selected salts 8, 9, 10, and 11 was evaluated. For each material, aliquots were set up at each of conditions (50° C., 40° C./75% RH, light) at given time points (initial and 1 week). PXRD diffractograms of the hydrogen fumarate salt 11 is shown in FIG. 17, with trace (a) showing the initial salt, trace (b) showing the salt after light treatment, trace (c) showing the salt after storage at 40° C. and 75% relative humidity for 1 week, and (d) showing the salt after storage at 50° C. for 1 week.

[2] = Solubility in physiologically relevant solutions (SGF, FaSSIF, FeSSIF); assay type: physicochemical; settings: 25±0.5° C.; for solubility at 24 h: 25 °C, thermodynamic from solid
Experimental: Solubility of the free base 1 and the selected salts 8, 9, 10, and 11 in physiologically relevant solutions were examined. For each material, aliquots were added to 2 ml vials containing 500 uL of either SGF, FaSSIF, or FeSSIF, which were then sealed. The mixtures were kept shaking by thermomixer at 700 rpm, 25±0.5° C. for 24 h to facilitate the dissolution and then centrifuged by 96-well plates at 3000 rpm for 2 min. The filter liquors were diluted with diluents (ACN/water, 50/50) and analyzed by HPLC.

For `CC(C)c1nc(-c2cnc(N)c(OC(F)(F)F)c2)cn1C12CC(N3CCOCC3)(C1)C2.O=C(O)/C=C/C(=O)O` [Example 11, 5-(2-isopropyl-1-(3-morpholinobicyclo[1.1.1]pentan-1-yl)-1H-imidazol-4-yl)-3-(trifluoromethoxy)pyridin-2-amine hydrogen fumarate], the “XRPD change?” value ([1]; 40° C., 75% RH) was “no”, the purity ([1]; 40° C., 75% RH) was 99.88% and the “XRPD change?” value ([1]; 50° C.) was “no”. For the same molecule, the purity ([1]; 50° C.) was 99.89%, the initial purity ([1]; initial (before storage)) was 99.85% and the “XRPD change?” value ([1]; light) was “no”. It also gave a purity ([1]; light) of 99.89%, a solubility at 24 h ([2]; simulated gastric fluid, SGF, read-out: Solubility SGF Conc) of 5810 µg/mL and a solubility at 24 h ([2]; FaSSIF, read-out: Solubility FaSSIF Conc) of 459 µg/mL. The solubility at 24 h ([2]; FeSSIF, read-out: Solubility FeSSIF Conc) was 646 µg/mL, the “FaSSIF pH after 24 h” value ([2]; FaSSIF) was 4.85 and the “FeSSIF pH after 24 h” value ([2]; FeSSIF) was 4.84. For the same molecule, the “SGF pH after 24 h” value ([2]; SGF) was 3.01.
